# Measured values: patent US8999296B2, “Method of detecting bladder cancer” (Kochi University, priority 2008, dated 2015)
# Key:
# [1] = test system: bladder cancer; assay: Intraoperative photodynamic diagnosis of bladder cancer with ALA-HCl (video camera system and VLD-M1 fluorescence intensity), Example 1; assay type: in vivo, human; conditions: for Fluorescence intensity (relative intensity) by VLD-M1: irradiation at 405 nm, PpIX fluorescence at 635 nm, one subject
# Method: Intraoperative diagnosis using 5-aminolevulinic acid hydrochloride (ALA-HCl) was carried out for two subjects who are in the almost same progression stage of bladder cancer. The subjects were administered ALA-HCl respectively by bladder instillation and by oral intake. Bladder instillation was conducted on the day of operation by dissolving 1.5 g of ALA-HCl in 50 mL of a 8.4% sodium bicarbonate (sodium hydrogen carbonate: NaHCO3) to adjust pH (median pH of 8.0 (pH 7.8-8.2)), filtrating the dissolved ALA-HCl solution with a 0.22 μm filter, and then injecting this dissolved solution (50 mL) into the bladder of a subject. Retention time in the bladder was set for 120-150 min ([…]) and ALA was eliminated just prior to the operation. On the other hand, oral intake was carried out by dissolving ALA (maximum of 1 g) in 50 mL of a 5% dextrose solution to 20 mg/kg, and the ALA dissolved solution (50 mL) was orally administered to the other subject in the morning (4 hours before commencement of the operation) without giving breakfast. Diagnosis was conducted based on the diagnostic imaging and fluorescent intensity with the use of a video camera system: Endovision TELECAM SL/IPM-PPDSystem (KARL STORZ) and VLD-M1 (M&M). The video camera system was inserted via the urethra and the red light part was observed after irradiating a blue fluorescence at 380-440 nm. Further, VLD-M1 was inserted and fluorescence intensity (relative intensity) at the red light part was observed after irradiating a blue fluorescence at 405 nm.
# In addition, at 635 nm which is the […] for protoporphyrin IX (PpIX), it was confirmed as shown in Table 1 that the fluorescence intensity was higher in the case of oral intake than in the case of bladder instillation.
# [2] = test system: bladder cancer; assay: Fluorescence diagnosis in bladder cancer patients grouped by disease stage (pTis, pTa, pT1, pT2, pT3), Example 2; assay type: in vivo, human; conditions: 50 bladder cancer patients, stages pTis, dosing as in Example 1
# Method: ALA was injected into the bladder or administered orally similarly to Example 1 to bladder cancer patients who had been grouped according to the disease stages based on the intramural invasion depth of the primary tumor: 6 cases of pTis (intraepithelial cancer), 27 cases of pTa (without invasion), 9 cases of pT1 (with invasion to submucosal connective tissue), 6 cases of pT2 (with muscle invasion), 2 cases of pT3 (with invasion to pericystic adipose tissue) (50 cases for total number of patients). […] This confirmed that oral administration is effective in a diagnosis method for bladder cancer at every disease stage.
smiles,measurement,setting,value
"Cl.NCC(=O)CCC(=O)O [ALA, 5-aminolevulinic acid hydrochloride]",Fluorescence intensity (relative intensity) by VLD-M1,[1]; bladder instillation of ALA (1.5 g ALA-HCl in 50 mL 8.4% NaHCO3),20153
same,Fluorescence intensity (relative intensity) by VLD-M1,"[1]; oral intake of ALA (20 mg/kg, 4 hours before operation)",48623
same,Identification of the site of bladder cancer by diagnostic imaging (FIGS. 1 and 2),"[1]; oral intake versus bladder instillation, irradiation at 380-440 nm, red light part observed",more remarkably identified in the case of oral intake than in the case of bladder instillation
same,"Fluorescence, oral administration versus injection into the bladder (FIGS. 3-6)",[2],fluorescence was more intensive when ALA was orally administered than when injected into the bladder
